Series [1] concerns human three-dimensional culture epidermal model (LabCyte EPI-MODEL). Put plainly: Suppression by cholesterol of skin irritation mediator production induced by asenapine and LADA in a human epidermal cell (Experiment 6). The format is cell-based. As for the experimental part: (§1) A human three-dimensional epidermal culture model obtained by multilayer-culturing a human normal epidermal cell (LabCyte EPI-MODEL, manufactured by Japan Tissue Engineering Co., Ltd.) was used. LabCyte is a cultured skin cultured in a transwell. For the experiment, LabCyte was used with the transwell.
(§2) The experiment was conducted as below. First, LabCyte was put into a 24-well assay plate. Then, 1 ml of assay medium (Japan Tissue Engineering Co., Ltd.) was added so that it was brought into contact with a bottom surface of the cultured skin in each well of the 24-well assay plate, and was pre-cultured in an incubator with 5% of carbon dioxide concentration at 37° C. for 1 hour.
(§3) The test solutions of each group were added to the cells, the culture solutions incubated for 48 hours were collected, and a production amount of each skin irritation mediator was measured. The skin irritation mediator was measured by using a commercially available ELISA kit (manufactured by R&D Systems, Inc.). A relative production amount of the skin irritation mediator in each test substance was calculated as below, when the production amount of the skin irritation mediator in the PMA Only Group was set to 100.
Cholesterol was used as a test substance. Asenapine and lauric acid diethanolamide (LADA) were used as the cutaneous irritants.
Tests were conducted by the following group composition. • Solvent Group: A group including only vehicle. Olive oil was used as a vehicle. • Skin Irritant Only Group: A group with addition of only cutaneous irritant dispersed in a vehicle, as a test solution. The concentration of asenapine maleate to be added was 0.6% (asenapine group), and that of LADA was 0.03% (LADA group). • Skin Irritant Plus Cholesterol Group: A group with addition of the drug and 1% by mass of cholesterol which were dispersed in a vehicle, as a test solution.
The experiment was conducted while other conditions were set in the same manner as Experiment 1.

Series [2] concerns shaved back of the rabbit. Particulars: in vivo.
Experimental: <Examination of Reduction in Skin Irritation in a Rabbit by Cholesterol, −1>
A 19-week-old JW female rabbit was subjected to an experiment.
Subsequently, the transdermal preparation of each group was applied to a shaved back of the rabbit a single time for 24 hours. Erythema and swelling on the applied site were evaluated 1, 24 and 48 hours after peel-off of the transdermal preparation in accordance with the judgment standard of Draize et al. and an average value of the skin primary irritation index (PII) was calculated.
Series [3] relates to human three-dimensional culture epidermal model (LabCyte EPI-MODEL). Briefly: Production of skin irritation mediators induced by PMA in human three-dimensional epidermal culture model (Experiment 1). Type of series: cell-based. Particulars: for activity at 1 %: Homo sapiens, test substance 1 mass % with PMA in olive oil, 48 hours.
Source text: Changes in production amounts of skin irritation mediators by test substances were examined when cutaneous irritants were caused to act on a human three-dimensional culture epidermal model.
as §1
As test substances, there were used cholesterol (manufactured by Wako Pure Chemical Industries, Ltd.), β-sitosterol (manufactured by TAMA BIOCHEMICAL CO., LTD.), α-spinasterol (manufactured by ChromaDex, Inc.), ergosterol (manufactured by Wako Pure Chemical Industries, Ltd.), campesterol (manufactured by TAMA BIOCHEMICAL CO., LTD.), glycyrrhizin (manufactured by Wako Pure Chemical Industries, Ltd.), glycyrrhetinic acid (manufactured by Wako Pure Chemical Industries, Ltd.), ginsenoside (manufactured by Wako Pure Chemical Industries, Ltd.), squalene (manufactured by Wako Pure Chemical Industries, Ltd.), squalane (manufactured by Tokyo Chemical Industry Co., Ltd.) and lanosterol (manufactured by ChromaDex, Inc.), which are candidates of a skin irritation suppressant.
As skin irritants, Phorbol 12-Myristate 13-Acetate (PMA, manufactured by Wako Pure Chemical Industries, Ltd.) was used. In addition, as vehicle, olive oil (manufactured by Wako Pure Chemical Industries, Ltd.) was used.
Experiments were conducted by the following group composition. • PMA Only Group: A group with addition of only 0.00001 mol of PMA dispersed in a vehicle, as a test solution. • Test Substance Group: A group with addition of 0.00001 mol of PMA and the test substance which were dispersed in a vehicle, as a test solution.
as §2
Next, a cell survival rate was measured by the MTT method after causing the test solutions of each group to act. Specifically, 50 μL of the test solution of each group was added to the surface of the LabCyte after preculture, was cultured in the incubator with 5% of carbon dioxide concentration at 37° C. for 48 hours, then was transferred to the assay medium comprising 0.5 mg/ml of MTT reagent, and was cultured in the incubator with 5% of carbon oxide level at 37° C. for 3 hours. Then, LabCyte was immersed in 0.3 ml of an isopropanol solution, and the produced blue-purple formazan was extracted for 2 hours. After extraction, an absorbance at 570 nm was measured by a 96 microplate reader. The cell survival rate was calculated as below.
Cell survival rate (%)=(absorbance of Test Substance Group)/(absorbance of PMA Only Group)×100
Subsequently, a production amount of the skin irritation mediator at a test substance concentration with 80% or more of cell survival rate was measured. As skin irritation mediators, PGE2, IL-1α, IL-6, IL-8 were measured.
as §3
Relative production amount=(production amount of the mediator in Test Substance Group)/(production amount of the mediator in PMA Only Group)×100

Series [4] relates to croton oil-induced mouse ear swelling. Briefly: Suppression of croton oil-induced mouse ear swelling reaction (Experiment 3). Type of series: in vivo. From the text:
<Suppression of Croton Oil-Induced Mouse Ear Swelling Reaction by the Test Substances>
Suppression of mouse ear swelling was examined through the use of croton oil (Wako Pure Chemical Industries, Ltd.) as a swelling inducer. A 7-week-old ddY female mouse (SPF) was subjected to an experiment. As test substances, cholesterol, glycyrrhizin, glycyrrhetinic acid, squalene, ergosterol, squalane and lanosterol were used. As a vehicle, acetone (Wako Pure Chemical Industries, Ltd.) was used.
Experiments were conducted by the following group composition. • Positive Control Group: A group which received only the vehicle as a primary test solution, and one hour after, received a 2% croton oil solution as a secondary test solution. • Test Substance Group: A group in which only the vehicle was administered as a primary test solution, and one hour after, a 2% croton oil solution including 1% by mass of test substance was administered as a secondary test solution.
An inhibition ratio of ear swelling was calculated as below. In this test, a […] inflammation model is used to examine immediate swelling reactions. In accordance with the group composition, 25 μL of the primary test solution was uniformly coated on back sides of both ears in an etherize mouse, and one hour after, 25 μL of the secondary test solution was uniformly coated in accordance with the group composition. Prior to coating of the secondary test solution, a thickness of auricle was measured by DIAL […] GAUGE (OZAKI MFG CO., LTD.). Furthermore, the secondary test solution was administered, and 6 hours after, the auricular thickness was measured in the same way as mentioned above, and an increased amount of the auricular thickness was set by deducting the thickness measured prior to administration of the secondary test solution. The inhibition ratio of ear swelling was calculated as below.
Inhibition ratio of ear swelling (%)=(increased amount of auricular thickness in Test Substance Group−increased amount of auricular thickness in Negative Control Group)/(increased amount of auricular thickness in Positive Control Group−increased amount of auricular thickness in Negative Control Group)×100

Series [5] has as its system human three-dimensional culture epidermal model (LabCyte EPI-MODEL). Put plainly: Suppression by cholesterol of skin irritation mediator production induced by drugs in a human epidermal cell (Experiment 2). The format is cell-based. Particulars: 1% by mass of cholesterol; summary of Table 2. As for the experimental part:
as §1, §2, §3
Cholesterol was used as a test substance. The drugs shown in Table 2 were used as the cutaneous irritants.
Tests were conducted by the following group composition. • Drug Only Group: A group with addition of only the drug dispersed in a vehicle, as a test solution. Concentrations of the drugs are shown in Table 2. • Drug Plus Cholesterol Group: A group with addition of the drug and 1% by mass of cholesterol which were dispersed in a vehicle, as a test solution.
The experiment was conducted while other conditions were set in the same manner as in Experiment 1.

[6] abbreviates: LADA 0.03% in olive oil, without or with 1% by mass of cholesterol.
Setting [7] is: asenapine maleate 0.6% in olive oil, without or with 1% by mass of cholesterol.

Where a name gives a salt, the structure may show the parent alone. Read-outs that look alike come from different tables or passages of the source.

For the compound `CCCCCCCCCCCC(=O)N(CCO)CCO` [LADA, lauric acid diethanolamide], in series [1] (setting [6]), the “Production Amount of Skin Irritation Mediator: IL-1α” value is 29.85 pg/mL, the “Production Amount of Skin Irritation Mediator: IL-6” value was 0.00 pg/mL, the “Production Amount of Skin Irritation Mediator: IL-8” value was 160.29 pg/mL and the “Production Amount of Skin Irritation Mediator: PGE2” value turned out to be 30.64 pg/mL. In addition, the “Production Amount of Skin Irritation Mediator: TNFα” value in series [1] (setting [6]) stood at 0.00 pg/mL.
As to `CN1CC2c3ccccc3Oc3ccc(Cl)cc3C2C1` (centres unmarked) [Asenapine, asenapine maleate], in series [1] (setting [7]), the “Production Amount of Skin Irritation Mediator: IL-1A” value turned out to be 17.24 pg/mL, the “Production Amount of Skin Irritation Mediator: IL-6” value amounted to 0.00 pg/mL, the “Production Amount of Skin Irritation Mediator: IL-8” value turned out to be 174.90 pg/mL and the “Production Amount of Skin Irritation Mediator: PGE2” value was found to be 125.85 pg/mL. In series [1] (setting [7]), the “Production Amount of Skin Irritation Mediator: TNFA” value is 0.00 pg/mL.
For the compound `CC(C)CCC[C@@H](C)[C@H]1CC[C@H]2[C@@H]3CC=C4C[C@@H](O)CC[C@]4(C)[C@H]3CC[C@]12C` [Cholesterol, cholesterol], the “Skin primary irritation index (PII), average value” in series [2] is given as “reduces skin irritation due to the drug”. In addition, the “Effect of cholesterol on skin irritation mediator production due to asenapine and LADA (in words)” value in series [1] (1% by mass of cholesterol, summary of Tables 5 and 6) is “exhibited effects of suppressing the skin irritation mediator production on skin irritation due to asenapine and LADA”. Moreover, the activity at 1 % was 50% in series [3] (read-out: Relative Production Amount of Skin Irritation Mediator when Production Amount in PMA Only Group is Set to 100: IL-1α), 0% in series [3] (read-out: Relative Production Amount of Skin Irritation Mediator when Production Amount in PMA Only Group is Set to 100: IL-6), 65% in series [3] (read-out: Relative Production Amount of Skin Irritation Mediator when Production Amount in PMA Only Group is Set to 100: IL-8) and 17% in series [3] (read-out: Relative Production Amount of Skin Irritation Mediator when Production Amount in PMA Only Group is Set to 100: PGE2). The “Effect on skin irritation mediator production by PMA (in words)” value in series [3] (summary of Table 1) was “exhibited effects of suppressing the skin irritation mediator production by PMA”. In series [4] (ddY female mouse, 1% by mass of test substance in 2% croton oil solution, 25 μL on ears, auricular thickness 6 hours after), the “Inhibition Ratio Of Ear Swelling” value amounted to 70.6%. The “Effect on croton oil-induced mouse ear swelling reaction (in words)” value in series [4] (summary of Table 3) is “suppress croton oil-induced mouse ear swelling reaction”. The “Effect of cholesterol on drug-induced production of the skin irritation mediator (in words)” value in series [5] is recorded as “exhibited effects of suppressing of production of the skin irritation mediator on a wide range of drugs”.

Values taken from patent US20130053357A1, “SKIN IRRITATION SUPPRESSANT AND TRANSDERMAL PREPARATION” (HISAMITSU PHARMACEUTICAL CO., INC., priority 2010, published 2013).
